According to PubChem BioAssay (NCI):
Several values for one entry are separate records, joined by “and”; a condition that tells them apart may be missing. Equal entries are not always repeated.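 Grown in 96-well plates, cells were treated for 48 hours with each compound at five concentrations. Insufficient inhibition: endpoint recorded as highest concentration tested. Abbreviation: GI50, concentration required for 50% inhibition of growth. At the TGI there is no net growth.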

Columns and labels:
Experiment in all cases: NCI-60 cell line screen, 48 h
[1] = system: HT29 colon
[2] = system: NCI-H23 lung
[3] = system: SF-268 CNS
[4] = system: SW-620 colon
[5] = system: ACHN renal
[6] = system: OVCAR-4 ovarian
[7] = system: MDA-MB-435
[8] = system: MOLT-4 leukemia
[9] = system: MALME-3M melanoma
[10] = system: TK-10 renal

SMILES | GI50 [1] | TGI [1] | GI50 [2] | TGI [2] | GI50 [3] | TGI [3] | GI50 [4] | TGI [4] | GI50 [5] | TGI [5] | GI50 [6] | TGI [6] | GI50 [7] | TGI [7] | GI50 [8] | TGI [8] | GI50 [9] | TGI [9] | GI50 [10] | TGI [10]
CC1(C)CC(=O)c2c(ccc(C(=O)C[C@@H](N)CO)c2N)O1 | 0.34 µM | > 91.1 µM | 1.17 µM | > 100 µM | 0.667 µM | > 89.5 µM | 0.234 µM | 12.7 µM | 1.25 µM | > 100 µM | 17.7 µM | > 100 µM | 2.39 µM | > 100 µM | 0.349 µM | > 37.4 µM | 12.5 µM | > 76.9 µM | 9.41 µM | 46.8 µM
COc1cc(C2C3=C(COC3=O)Nc3cc4c(cc32)OCO4)cc2c1OCO2 (stereo not given) | 0.0722 µM | 3.21 µM | 0.0757 µM |  | 0.0834 µM | > 100 µM | 0.0651 µM | > 100 µM | 0.357 µM | > 100 µM | 0.0982 µM | > 100 µM | 0.0238 µM | 0.0664 µM | 0.123 µM | > 100 µM | > 100 µM | > 100 µM | 0.295 µM | > 100 µM
FC(F)(F)c1[nH]ncc1-c1nc2ccc3[nH]ncc3c2c2c1CCCC2 | 2.11 µM | 6.76 µM | 1.52 µM | 4.32 µM | 1.73 µM | 4.72 µM | 1.75 µM | 11 µM | 1.39 µM | 9.62 µM | 2.82 µM | 11.4 µM | 1.78 µM | 9.55 µM | 1.29 µM | 5.29 µM | 0.927 µM | 3.82 µM | 1.24 µM | 8.27 µM
O=S(=O)(NCCO)c1cc[c]([Sb](=[O])([OH])[OH])cc1 | > 100 µM | > 100 µM | > 100 µM | > 100 µM | > 100 µM | > 100 µM | > 100 µM | > 100 µM | > 100 µM | > 100 µM | > 100 µM | > 100 µM | > 100 µM | > 100 µM | > 100 µM | > 100 µM | > 100 µM | > 100 µM | > 100 µM | > 100 µM
CCOC(=O)c1nc2cc(C(F)(F)F)ccc2[n+]([O-])c1C | > 100 µM | > 100 µM | > 100 µM | > 100 µM | > 100 µM | > 100 µM | > 100 µM | > 100 µM | > 100 µM | > 100 µM | > 100 µM | > 100 µM | > 100 µM | > 100 µM | > 100 µM | > 100 µM | > 100 µM | > 100 µM | > 100 µM | > 100 µM
O=C(c1ccccc1O)c1[nH]c(Cl)c(Cl)c1-n1c(C(=O)c2ccccc2O)cc(Cl)c1Cl | 2 µM | 12.8 µM | 0.418 µM and 0.409 µM | 6.8 µM and 11.7 µM | 0.677 µM and 0.546 µM | 13.4 µM and 14.6 µM | 0.869 µM and 0.716 µM | 13.2 µM and 12.7 µM | 1.54 µM and 0.591 µM | 9.41 µM and 9.11 µM | 2.41 µM and 1.86 µM | 19.4 µM and 10.7 µM | 1.87 µM and 1.51 µM | 10.6 µM and 10.4 µM | 1.7 µM and 0.798 µM | 14.4 µM and 5.74 µM | 1.37 µM | 5.18 µM | 0.656 µM and 0.616 µM | 10.9 µM and 12.4 µM
CN(C)c1ccc(C(=C2C=CC(=[N+](C)C)C=C2)c2ccccc2Cl)cc1 | 0.167 µM | 1.03 µM | 0.282 µM | 1.28 µM | 0.379 µM | 1.41 µM | 0.288 µM | 1.19 µM | 0.4 µM | 1.61 µM | 0.36 µM | 1.6 µM | 0.309 µM | 1.11 µM | 0.593 µM | 12.9 µM | 0.266 µM | 1.05 µM | 0.345 µM | 1.41 µM
CCN(CC)CCCNc1[nH]ncc2c(C)c3nc4ccccc4c3cc12 | 0.362 µM | 1.71 µM and 2.83 µM | 0.583 µM | 1.99 µM and 3.72 µM | 0.493 µM and 1.09 µM | 3.16 µM and 7.67 µM | 0.319 µM and 0.529 µM | 2.92 µM and 6.98 µM |  | 11.6 µM and 9.15 µM | 0.397 µM | 1.75 µM and 2.42 µM | 0.754 µM | 2.12 µM and 4 µM | 0.0288 µM | 0.183 µM and 0.0447 µM | 0.918 µM | 2.34 µM and 3.81 µM | 2.83 µM | 12.4 µM and 18.1 µM
CC(=O)/C(=C\c1c(-c2ccccc2)[nH]c2ccccc12)S(=O)(=O)c1ccccc1 | 0.576 µM | 2.32 µM | 1.48 µM | 5.52 µM | 3.35 µM | 31.1 µM | 0.73 µM | 7.14 µM | 2.06 µM | 5.09 µM | 3.53 µM | > 54.2 µM | 0.295 µM | 4.14 µM | 1.35 µM | 6.39 µM | 1.98 µM | 9.19 µM | 3.44 µM | > 41.1 µM
CC1(C)N=C(N)N=C(N)N1c1ccc(Cl)c(Cl)c1 | 0.1 µM | > 100 µM | 0.453 µM | > 100 µM | 0.0566 µM | > 100 µM | 0.0966 µM | > 100 µM | 0.683 µM | > 100 µM | 10.9 µM | > 100 µM | 0.0644 µM | > 100 µM | 1.38 µM | > 100 µM | 32 µM | > 100 µM |  | > 100 µM
Cc1ncc(-c2ccnc(Nc3ccc(S(C)(=O)=O)cc3)n2)n1C(C)C | 1.29 µM | > 10 µM | 1.79 µM | 7.17 µM | 1.67 µM | 6.62 µM | 1.02 µM | > 10 µM | 0.603 µM | > 9.54 µM | 1.87 µM | > 8.73 µM | 1.41 µM | > 5.6 µM | 1.03 µM | 4.99 µM | 2.56 µM | 6.04 µM | 1.37 µM | > 10 µM
CN1CCN(c2ccc(C(=O)Nc3cccc(C#Cc4cccc5[nH]nc(N)c45)c3)cc2C(F)(F)F)CC1 | 0.715 µM | 1.81 µM | 1.79 µM | 6.12 µM | 1.21 µM | 4.85 µM | 0.608 µM | 1.26 µM | 0.801 µM | 2.4 µM | 0.962 µM | 4.51 µM | 0.61 µM | 1.19 µM | 0.645 µM | 1.57 µM | 0.651 µM | 1.62 µM | 1.1 µM | 3.24 µM
Cc1cc(S(N)(=O)=O)c(S/C(=N\Nc2ccc([N+](=O)[O-])cc2)c2ccc3ccccc3c2)cc1Cl | 73.2 µM | > 100 µM | 16.4 µM | 30.2 µM | 10.1 µM | 44.4 µM | 33.4 µM | > 100 µM | 17 µM | 30.7 µM | 61.1 µM | > 100 µM | 22.2 µM | 64.9 µM | 73.9 µM | > 100 µM | 11.7 µM | 25.7 µM | 7.46 µM | 31.7 µM
CC/C=C\C[C@H](O)C/C=C1/C(=O)C=C[C@@H]1C/C=C\CCCC(=O)NC | 1.52 µM | 3.25 µM | 1.82 µM | 4.22 µM | 2.94 µM | 12.9 µM | 1.28 µM | 4.63 µM | 1.56 µM | 3.21 µM | 3.04 µM | 19.5 µM | 1.73 µM | 6.64 µM | 2.4 µM | 11.3 µM | 1.94 µM | 4.65 µM | 2.85 µM | 6.49 µM
COC(=O)/C(=C\c1c(-c2ccccc2)[nH]c2ccccc12)S(C)(=O)=O | 3.58 µM | 46.1 µM | 7.95 µM | 41.8 µM | 4.32 µM | 18.3 µM | 2.92 µM | 15.9 µM | 9.18 µM | 23.8 µM | 6.23 µM | > 100 µM | 0.671 µM | 4.77 µM | 4.72 µM | > 100 µM | 12.2 µM | 44.2 µM | 7.71 µM | > 100 µM
O=Nc1c(O)c2ccccc2c2ccccc12 | 2.83 µM | 7.88 µM | 0.464 µM | 3.86 µM | 1.43 µM | 3.75 µM | 1.2 µM | 3.19 µM | 1.02 µM | 7.1 µM | 0.198 µM | 0.48 µM | 0.179 µM | 0.317 µM | 2.13 µM | > 100 µM | 1.47 µM | 3.03 µM | 2.7 µM | 7.9 µM
CC(=O)NC1=C(Sc2ccc(Cl)cc2)C(=O)c2ccccc2C1=O |  | 25.6 µM |  | 37 µM |  | 8.41 µM |  | 4.01 µM |  | 4.85 µM |  | 3.34 µM |  | 4.56 µM |  | 1.7 µM |  | 8 µM |  | 13.5 µM
C[C@@](O)(/C=C/[C@H]1CC=CC(=O)O1)[C@@H](C[C@@H](O)\C=C/C=C\C=C\CO)OP(=O)(O)O |  | 6.33 µM | 15 µM | 91.6 µM and 68.3 µM | 12.2 µM | 83.2 µM and 99.1 µM |  | 70.9 µM |  | 20.4 µM |  | 25.5 µM |  | 11.7 µM | 13.4 µM and 3.71 µM |  | 6.94 µM | 16 µM and 14.3 µM |  | 46.6 µM
O=C(Nc1cccc(-n2cc(-c3ccncc3)c(-c3ccc(O)c(Cl)c3)n2)c1)c1ccc(Cl)c(Cl)c1 | 26 µM | > 100 µM | 15 µM | > 100 µM | 36.9 µM | > 100 µM | 3.89 µM | > 100 µM | 4.62 µM | > 100 µM | 9.9 µM | > 100 µM | 6.06 µM | 46.2 µM | 7.19 µM | > 100 µM | 3.58 µM | 21 µM | 43.2 µM | > 100 µM
